In ChEMBL document CHEMBL1128323, “Antifungal agents. 9. 3-Aryl-4-[alpha-(1H-imidazol-1-yl)arylmethyl]pyrroles: a new class of potent anti-Candida agents” (1995):
Values after ≈ are worked out from the molar mass of the structure shown.

Assays:
Type in all cases: functional
Candida albicans [1] = assay: Percent resistance against Candida albicans (40 clinical isolates) at 256 micro g/mL (pH=5.8), activity is expressed as R%.
Candida albicans [2] = assay: Resistance against Candida. albicans (40 clinical isolates) at 256 ug/mL (pH=7.2), activity is expressed as R%.
Candida albicans [3] = assay: Inhibitory activity against Candida albicans (40 clinical isolates), determined at pH-5.8
Candida albicans [4] = assay: Inhibitory activity against Candida albicans (40 clinical isolates), determined at pH-7.2
Candida [5] = assay: Inhibitory activity against Candida. species. (40 clinical isolates), determined at pH-5.8
Candida [6] = assay: Inhibitory activity against Candida. species. (40 clinical isolates), determined at pH-7.2
Candida [7] = assay: Inhibitory activity against Candida. species (40 clinical isolates), determined at pH-5.8
Candida [8] = assay: 50% inhibitory activity against the Candida. species (40 clinical isolates) was determined at pH-7.2
Candida [9] = assay: 90% inhibitory activity against Candida. species (40 clinical isolates) determined at pH-7.2
Candida [10] = assay: Resistance against all Candida. species (40 clinical isolates) at 256 micro g/mL (pH=5.8). Activity is expressed as R%.
Candida [11] = assay: Percent resistance against all Candida. species (40 clinical isolates) at 256 micro g/mL (pH=7.2), activity is expressed as R%.
Candida albicans [12] = assay: Inhibitory activity against the Candida albicans (40 clinical isolates), determined at pH-5.8
Candida albicans [13] = assay: Inhibitory activity against the Candida albicans (40 clinical isolates), determined at pH-7.2
Candida albicans [14] = assay: 50% inhibitory activity against Candida albicans (40 clinical isolates) determined at pH-5.8
Candida albicans [15] = assay: 50% inhibitory activity against Candida albicans (40 clinical isolates) determined at pH-7.2; details: Candida albicans; read-out: MIC50

Structure (SMILES) | R (Candida albicans [1]) | R (Candida albicans [2]) | MIC (Candida albicans [3]) | MIC (Candida albicans [4]) | MIC (Candida [5]) | MIC (Candida [6]) | MIC50 (Candida [7]) | MIC90 (Candida [7]) | MIC50 (Candida [8]) | MIC90 (Candida [9]) | R (Candida [10]) | R (Candida [11]) | MIC90 (Candida albicans [12]) | MIC90 (Candida albicans [13]) | MIC50 (Candida albicans [14]) | MIC50 (Candida albicans [15])
Clc1ccc(-c2c[nH]cc2C(c2ccccc2)n2ccnc2)c(Cl)c1 (centres undefined) | 0% | 0% | 8.4 µg/mL (≈ 22.8 µM) | 5.4 µg/mL (≈ 14.7 µM) | 23.5 µg/mL (≈ 63.8 µM) | 16.6 µg/mL (≈ 45.1 µM) | 32 µg/mL (≈ 86.9 µM) | 32 µg/mL (≈ 86.9 µM) | 16 µg/mL (≈ 43.4 µM) | 32 µg/mL (≈ 86.9 µM) | 0% | 0% | 16 µg/mL (≈ 43.4 µM) | 16 µg/mL (≈ 43.4 µM) | 4 µg/mL (≈ 10.9 µM) | 2 µg/mL (≈ 5.43 µM)
Nc1ccc(C(c2c[nH]cc2-c2ccccc2Cl)n2ccnc2)cc1 (centres undefined) | 0% | 0% | 100 µg/mL (≈ 288 µM) | 131 µg/mL (≈ 376 µM) | 201 µg/mL (≈ 576 µM) | > 222 µg/mL | 256 µg/mL (≈ 734 µM) | 256 µg/mL (≈ 734 µM) | 256 µg/mL (≈ 734 µM) | 256 µg/mL (≈ 734 µM) | 50% | 50% | 256 µg/mL (≈ 734 µM) | 256 µg/mL (≈ 734 µM) | 64 µg/mL (≈ 183 µM) | 64 µg/mL (≈ 183 µM)
Clc1ccc(-c2c[nH]cc2C(c2ccc(-c3ccccc3)cc2)n2ccnc2)cc1 (centres undefined) | 0% | 40% | > 26.5 µg/mL | > 150 µg/mL | 28.4 µg/mL (≈ 69.3 µM) | > 352 µg/mL | 32 µg/mL (≈ 78.1 µM) | 128 µg/mL (≈ 312 µM) | > 256 µg/mL | > 256 µg/mL | 0% | 60% | 256 µg/mL (≈ 625 µM) | 256 µg/mL (≈ 625 µM) | 8 µg/mL (≈ 19.5 µM) | 64 µg/mL (≈ 156 µM)
Clc1ccc(-c2c[nH]cc2C(c2ccc(Cl)cc2)n2ccnc2)cc1 (centres undefined) | 0% | 0% | 12.3 µg/mL (≈ 33.4 µM) | 16.3 µg/mL (≈ 44.3 µM) | 20.2 µg/mL (≈ 54.9 µM) | 21.3 µg/mL (≈ 57.8 µM) | 16 µg/mL (≈ 43.4 µM) | 32 µg/mL (≈ 86.9 µM) | 16 µg/mL (≈ 43.4 µM) | 32 µg/mL (≈ 86.9 µM) | 0% | 0% | 32 µg/mL (≈ 86.9 µM) | 32 µg/mL (≈ 86.9 µM) | 8 µg/mL (≈ 21.7 µM) | 16 µg/mL (≈ 43.4 µM)
